ChEMBL document CHEMBL5723035, “Affinity Biochemical Literature for EUbOPEN Chemogenomic Library” (2024)
Values belong to the molecule of their own block, whether it stands above or below them. Residues, ends and D or L forms follow the SMILES beside them. *: point of attachment. Cbz = O=C(OCc1ccccc1)*; Boc = CC(C)(C)OC(=O)*; CH2F = FC*

Columns and labels:
Caspase-5 = Caspase-5 (Homo sapiens, UniProt P51878); assay: Affinity Biochemical interaction: (enzymatic assay (fluorogenic substrate cleavage)) EUB0002202a CASP5; assay type: functional; parameters: mode of action Inhibitor, recommended concentration 1 uM
Chain of Caspase-5 (P51878 137-327 limits assumed): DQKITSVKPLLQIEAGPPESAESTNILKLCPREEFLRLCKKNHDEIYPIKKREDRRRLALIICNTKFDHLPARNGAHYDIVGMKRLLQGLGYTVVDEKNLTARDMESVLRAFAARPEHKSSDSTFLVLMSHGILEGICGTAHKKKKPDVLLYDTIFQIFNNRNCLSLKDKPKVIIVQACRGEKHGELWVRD
Chain of Caspase-5 (P51878 347-434 limits assumed): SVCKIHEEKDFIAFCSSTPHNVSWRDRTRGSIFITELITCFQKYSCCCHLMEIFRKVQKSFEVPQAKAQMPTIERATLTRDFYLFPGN

Caspase-3 [1] = molecular target: T1, Caspase-3 (Homo sapiens, UniProt P42574); assay: (§1) Affinity Biochemical interaction: (enzymatic assay (fluorogenic substrate cleavage)) EUB0002178aAD CASP3; assay type: functional; parameters: mode of action Inhibitor, recommended concentration 1 uM
T1 sequence (P42574 whole entry): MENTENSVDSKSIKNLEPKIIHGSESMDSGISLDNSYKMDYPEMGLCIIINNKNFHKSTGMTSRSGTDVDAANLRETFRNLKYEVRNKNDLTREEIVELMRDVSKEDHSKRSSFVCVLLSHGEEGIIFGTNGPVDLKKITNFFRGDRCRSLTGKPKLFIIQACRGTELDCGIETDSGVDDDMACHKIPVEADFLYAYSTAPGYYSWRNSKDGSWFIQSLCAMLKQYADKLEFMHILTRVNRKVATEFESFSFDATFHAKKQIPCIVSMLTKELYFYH

Caspase-3 [2] = molecular target: T1, Caspase-3; assay: as §1; assay type: functional; parameters: mode of action Inhibitor, recommended concentration 1 uM; remark: listed apart in the source
Caspase-8 [3] = molecular target: T2, Caspase-8 (Homo sapiens, UniProt Q14790); assay: Affinity Biochemical interaction: (enzymatic assay (fluorogenic substrate cleavage)) EUB0002177aAD CASP8; assay type: functional; parameters: mode of action Inhibitor, recommended concentration 1 uM
T2 sequence (Q14790 217-374 limits assumed): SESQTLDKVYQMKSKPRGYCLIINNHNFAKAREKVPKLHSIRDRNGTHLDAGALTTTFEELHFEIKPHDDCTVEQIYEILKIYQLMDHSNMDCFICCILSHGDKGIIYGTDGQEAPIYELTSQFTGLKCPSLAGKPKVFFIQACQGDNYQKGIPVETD
T2 sequence (Q14790 385-479 limits assumed): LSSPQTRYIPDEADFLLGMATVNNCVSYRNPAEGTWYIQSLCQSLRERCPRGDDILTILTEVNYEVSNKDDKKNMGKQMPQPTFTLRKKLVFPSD

[4] = molecular target: T3, Histone-lysine N-methyltransferase EZH1 (Homo sapiens, UniProt Q92800); assay: Affinity Biochemical interaction: (ELISA-based protein substrate methylation assay) EUB0002228a EZH1; assay type: functional; parameters: mode of action Inhibitor, recommended concentration 1 uM
T3 sequence (Q92800 whole entry): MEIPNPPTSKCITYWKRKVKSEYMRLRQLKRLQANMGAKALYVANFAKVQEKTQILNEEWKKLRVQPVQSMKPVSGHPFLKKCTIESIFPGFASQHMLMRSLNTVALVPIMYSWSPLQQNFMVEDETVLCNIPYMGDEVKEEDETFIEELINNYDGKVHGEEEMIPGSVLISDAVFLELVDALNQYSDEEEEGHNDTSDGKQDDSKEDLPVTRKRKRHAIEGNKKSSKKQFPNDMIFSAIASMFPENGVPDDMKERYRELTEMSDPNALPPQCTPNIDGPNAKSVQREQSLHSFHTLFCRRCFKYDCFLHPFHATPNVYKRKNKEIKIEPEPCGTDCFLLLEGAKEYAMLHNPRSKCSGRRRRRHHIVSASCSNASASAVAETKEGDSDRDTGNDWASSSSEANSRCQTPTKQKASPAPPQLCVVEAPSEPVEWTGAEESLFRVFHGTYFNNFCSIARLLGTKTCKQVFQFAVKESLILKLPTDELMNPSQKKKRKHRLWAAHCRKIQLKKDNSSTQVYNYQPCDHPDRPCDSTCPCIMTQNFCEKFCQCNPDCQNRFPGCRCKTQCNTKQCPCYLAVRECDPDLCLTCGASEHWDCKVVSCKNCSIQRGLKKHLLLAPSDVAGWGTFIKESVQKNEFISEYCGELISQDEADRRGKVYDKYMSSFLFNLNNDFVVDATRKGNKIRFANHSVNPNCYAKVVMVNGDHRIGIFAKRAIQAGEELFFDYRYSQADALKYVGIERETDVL

[5] = molecular target: T3, Histone-lysine N-methyltransferase EZH1; assay: Affinity Biochemical interaction: (inhibition of EZH1 for both SAM and peptide substrates using a Flashplate assay to measure the transfer of a tritiated methyl group from SAM to the peptide) EUB0002228a EZH1; assay type: functional; parameters: mode of action Inhibitor, recommended concentration 1 uM
Caspase-4 = Caspase-4 (Homo sapiens, UniProt P49662); assay: Affinity Biochemical interaction: (enzymatic assay (fluorogenic substrate cleavage)) EUB0002201a CASP4; assay type: functional; parameters: mode of action Inhibitor, recommended concentration 1 uM
Chain of Caspase-4 (P49662 81-270 limits assumed): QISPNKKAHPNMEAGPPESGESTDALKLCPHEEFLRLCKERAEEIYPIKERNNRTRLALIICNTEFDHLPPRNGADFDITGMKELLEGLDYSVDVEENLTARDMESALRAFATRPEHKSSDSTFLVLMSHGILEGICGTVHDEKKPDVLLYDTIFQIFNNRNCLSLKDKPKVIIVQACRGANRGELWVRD
Chain of Caspase-4 (P49662 290-377 limits assumed): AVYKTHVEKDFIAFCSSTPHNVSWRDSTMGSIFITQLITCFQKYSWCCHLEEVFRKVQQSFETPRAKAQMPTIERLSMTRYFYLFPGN

[6] = molecular target: Histone-lysine N-methyltransferase SMYD3 (Homo sapiens, UniProt Q9H7B4); assay: Affinity Biochemical interaction: (inhibition of methylation activity, scintillation proximity assay utilizing [3 H]-SAM with specific product capture of biotin-tagged peptides on streptavidin SPA beads) EUB0002243aAD SMYD3; assay type: functional; parameters: mode of action Inhibitor, recommended concentration 1 uM
Chain of Histone-lysine N-methyltransferase SMYD3 (Q9H7B4 whole entry): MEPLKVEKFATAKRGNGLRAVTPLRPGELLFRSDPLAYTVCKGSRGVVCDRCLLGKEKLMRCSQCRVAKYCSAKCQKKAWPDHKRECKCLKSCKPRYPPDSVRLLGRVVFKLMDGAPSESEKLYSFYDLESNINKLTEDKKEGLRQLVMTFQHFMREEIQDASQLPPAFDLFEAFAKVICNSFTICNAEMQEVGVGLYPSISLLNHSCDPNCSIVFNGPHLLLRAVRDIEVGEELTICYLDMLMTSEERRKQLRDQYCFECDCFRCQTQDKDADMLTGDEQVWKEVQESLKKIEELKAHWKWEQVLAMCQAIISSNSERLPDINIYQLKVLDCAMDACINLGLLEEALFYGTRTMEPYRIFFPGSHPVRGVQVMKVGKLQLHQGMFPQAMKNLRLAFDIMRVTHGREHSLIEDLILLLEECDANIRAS

Caspase-2 = Caspase-2 (Homo sapiens, UniProt P42575); assay: Affinity Biochemical interaction: (enzymatic assay (fluorogenic substrate cleavage)) EUB0002196a CASP2; assay type: functional; parameters: mode of action Inhibitor, recommended concentration 1 uM
Chain of Caspase-2 (P42575 170-325 limits assumed): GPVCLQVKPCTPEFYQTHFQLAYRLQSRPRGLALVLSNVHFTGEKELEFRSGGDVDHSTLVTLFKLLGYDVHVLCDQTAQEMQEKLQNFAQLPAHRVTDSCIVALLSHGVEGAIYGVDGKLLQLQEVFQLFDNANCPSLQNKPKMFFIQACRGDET
Chain of Caspase-2 (P42575 334-452 limits assumed): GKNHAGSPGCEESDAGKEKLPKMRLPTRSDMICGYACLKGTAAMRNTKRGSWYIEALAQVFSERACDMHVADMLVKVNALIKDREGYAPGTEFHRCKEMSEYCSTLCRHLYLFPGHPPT

Caspase-3 [7] = molecular target: T1, Caspase-3; assay: Affinity Biochemical interaction: (enzymatic assay (fluorogenic substrate cleavage)) EUB0002196a CASP3; assay type: functional; parameters: mode of action Inhibitor, recommended concentration 1 uM
Caspase-7 = Caspase-7 (Homo sapiens, UniProt P55210); assay: Affinity Biochemical interaction: (enzymatic assay (fluorogenic substrate cleavage)) EUB0002196a CASP7; assay type: functional; parameters: mode of action Inhibitor, recommended concentration 1 uM
Chain of Caspase-7 (P55210 24-198 limits assumed): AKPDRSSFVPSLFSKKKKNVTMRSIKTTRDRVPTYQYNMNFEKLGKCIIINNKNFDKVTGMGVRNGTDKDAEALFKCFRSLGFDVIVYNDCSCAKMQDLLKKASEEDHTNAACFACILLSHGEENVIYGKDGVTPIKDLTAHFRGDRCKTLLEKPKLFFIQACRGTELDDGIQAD
Chain of Caspase-7 (P55210 207-303 limits assumed): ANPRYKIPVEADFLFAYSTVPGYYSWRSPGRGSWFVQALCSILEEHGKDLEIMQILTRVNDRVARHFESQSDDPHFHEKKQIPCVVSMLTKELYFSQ

[8] = molecular target: T4, WD repeat-containing protein 5 (Homo sapiens, UniProt P61964); assay: Affinity Biochemical interaction: (Fluorescence polarisation anisotropy) EUB0002166aAD WDR5; assay type: functional; parameters: mode of action Inhibitor, recommended concentration 1 uM
[9] = molecular target: T4, WD repeat-containing protein 5; assay: Affinity Biochemical interaction: (TR-FRET) EUB0002166aAD WDR5; assay type: functional; parameters: mode of action Inhibitor, recommended concentration 1 uM
[10] = molecular target: Monocarboxylate transporter 1 (Homo sapiens, UniProt P53985); assay: Affinity Biochemical interaction: (Displacement of radiolabelled [3H]-BAY-8002) EUB0001677b SLC16A1; parameters: mode of action Inhibitor, recommended concentration 1 uM
Chain of Monocarboxylate transporter 1 (P53985 whole entry): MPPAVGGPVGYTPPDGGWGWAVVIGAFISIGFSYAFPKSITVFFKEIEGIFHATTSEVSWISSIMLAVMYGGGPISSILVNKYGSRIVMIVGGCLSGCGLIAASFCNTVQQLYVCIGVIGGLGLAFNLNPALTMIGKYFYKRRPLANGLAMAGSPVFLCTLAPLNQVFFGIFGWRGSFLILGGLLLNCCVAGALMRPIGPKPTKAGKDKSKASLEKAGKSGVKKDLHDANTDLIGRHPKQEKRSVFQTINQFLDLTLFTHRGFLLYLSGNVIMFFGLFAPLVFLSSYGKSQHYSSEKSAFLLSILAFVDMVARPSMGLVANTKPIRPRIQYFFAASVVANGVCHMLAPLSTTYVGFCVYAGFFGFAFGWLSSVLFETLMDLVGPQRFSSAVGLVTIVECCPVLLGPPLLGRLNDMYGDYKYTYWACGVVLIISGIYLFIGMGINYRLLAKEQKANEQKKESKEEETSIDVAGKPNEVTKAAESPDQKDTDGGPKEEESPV

[11] = molecular target: Histone-arginine methyltransferase CARM1 (Homo sapiens, UniProt Q86X55); assay: Affinity Biochemical interaction: (enzymatic assay (inhibition of methyl transfer from radiolabelled substrate [3H]SAM to peptide)) EUB0002245aCl CARM1; assay type: functional; parameters: mode of action Inhibitor, recommended concentration 1 uM
Chain of Histone-arginine methyltransferase CARM1 (Q86X55 whole entry): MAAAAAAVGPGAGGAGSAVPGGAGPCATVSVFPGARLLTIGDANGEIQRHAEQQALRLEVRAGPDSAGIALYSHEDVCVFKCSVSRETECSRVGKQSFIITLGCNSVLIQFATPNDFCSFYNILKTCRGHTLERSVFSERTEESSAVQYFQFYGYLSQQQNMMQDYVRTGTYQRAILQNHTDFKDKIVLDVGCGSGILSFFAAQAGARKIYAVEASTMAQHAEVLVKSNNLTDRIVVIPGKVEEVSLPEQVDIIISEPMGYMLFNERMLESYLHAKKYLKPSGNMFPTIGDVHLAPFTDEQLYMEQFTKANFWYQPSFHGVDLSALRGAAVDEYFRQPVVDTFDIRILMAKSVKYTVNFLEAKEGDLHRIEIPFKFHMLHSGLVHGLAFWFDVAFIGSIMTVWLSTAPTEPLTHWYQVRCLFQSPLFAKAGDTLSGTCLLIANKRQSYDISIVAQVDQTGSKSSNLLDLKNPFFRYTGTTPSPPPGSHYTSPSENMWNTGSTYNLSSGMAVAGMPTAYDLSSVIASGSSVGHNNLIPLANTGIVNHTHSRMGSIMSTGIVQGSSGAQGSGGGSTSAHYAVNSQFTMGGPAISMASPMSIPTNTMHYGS

[12] = molecular target: Protein arginine N-methyltransferase 6 (Homo sapiens, UniProt Q96LA8); assay: Affinity Biochemical interaction: (enzymatic assay (inhibition of methyl transfer from radiolabelled substrate [3H]SAM to peptide)) EUB0002245aCl PRMT6; assay type: functional; parameters: mode of action Inhibitor, recommended concentration 1 uM
Chain of Protein arginine N-methyltransferase 6 (Q96LA8 whole entry): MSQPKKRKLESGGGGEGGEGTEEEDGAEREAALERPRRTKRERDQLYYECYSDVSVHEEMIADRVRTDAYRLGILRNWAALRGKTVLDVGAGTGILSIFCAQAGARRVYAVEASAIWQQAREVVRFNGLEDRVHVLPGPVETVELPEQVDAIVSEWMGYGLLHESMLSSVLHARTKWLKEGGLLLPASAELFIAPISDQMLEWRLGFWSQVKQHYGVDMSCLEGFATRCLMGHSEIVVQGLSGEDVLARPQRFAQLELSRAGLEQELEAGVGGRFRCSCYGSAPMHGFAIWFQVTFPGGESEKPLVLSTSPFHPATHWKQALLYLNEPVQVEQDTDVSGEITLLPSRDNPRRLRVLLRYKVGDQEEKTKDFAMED

[13] = molecular target: Protein arginine N-methyltransferase 8 (Homo sapiens, UniProt Q9NR22); assay: Affinity Biochemical interaction: (enzymatic assay (inhibition of methyl transfer from radiolabelled substrate [3H]SAM to peptide)) EUB0002245aCl PRMT8; assay type: functional; parameters: mode of action Inhibitor, recommended concentration 1 uM
Chain of Protein arginine N-methyltransferase 8 (Q9NR22 whole entry): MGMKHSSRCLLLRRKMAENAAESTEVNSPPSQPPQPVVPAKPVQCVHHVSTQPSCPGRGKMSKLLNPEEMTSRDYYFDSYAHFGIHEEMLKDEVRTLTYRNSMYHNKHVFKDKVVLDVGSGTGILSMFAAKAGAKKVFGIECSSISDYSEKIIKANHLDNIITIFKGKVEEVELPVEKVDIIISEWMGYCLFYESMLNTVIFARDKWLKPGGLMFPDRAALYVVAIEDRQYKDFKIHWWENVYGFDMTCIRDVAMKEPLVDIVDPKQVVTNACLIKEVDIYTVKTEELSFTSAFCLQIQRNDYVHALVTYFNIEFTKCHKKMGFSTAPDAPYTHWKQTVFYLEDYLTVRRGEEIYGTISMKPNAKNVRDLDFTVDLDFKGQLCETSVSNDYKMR

Caspase-1 = Caspase-1 (Homo sapiens, UniProt P29466); assay: Affinity Biochemical interaction: (enzymatic assay (fluorogenic substrate cleavage)) EUB0002190aAD CASP1; assay type: functional; parameters: mode of action Inhibitor, recommended concentration 1 uM
Chain of Caspase-1 (P29466 120-297 limits assumed): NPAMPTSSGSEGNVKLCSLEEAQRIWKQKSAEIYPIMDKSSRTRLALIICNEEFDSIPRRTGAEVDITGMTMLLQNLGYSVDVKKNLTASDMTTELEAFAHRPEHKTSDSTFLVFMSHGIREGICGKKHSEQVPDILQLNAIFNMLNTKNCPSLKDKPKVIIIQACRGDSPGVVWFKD
Chain of Caspase-1 (P29466 317-404 limits assumed): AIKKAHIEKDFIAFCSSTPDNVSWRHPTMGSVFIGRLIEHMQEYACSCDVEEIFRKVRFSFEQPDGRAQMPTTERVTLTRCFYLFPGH

Caspase-3 [14] = molecular target: T1, Caspase-3; assay: Affinity Biochemical interaction: (enzymatic assay (fluorogenic substrate cleavage)) EUB0002190aAD CASP3; assay type: functional; parameters: mode of action Inhibitor, recommended concentration 1 uM
Caspase-6 = Caspase-6 (Homo sapiens, UniProt P55212); assay: Affinity Biochemical interaction: (enzymatic assay (fluorogenic substrate cleavage)) EUB0002190aAD CASP6; assay type: functional; parameters: mode of action Inhibitor, recommended concentration 1 uM
Caspase-8 [15] = molecular target: T2, Caspase-8; assay: Affinity Biochemical interaction: (enzymatic assay (fluorogenic substrate cleavage)) EUB0002190aAD CASP8; assay type: functional; parameters: mode of action Inhibitor, recommended concentration 1 uM
Caspase-9 = Caspase-9 (Homo sapiens, UniProt P55211); assay: Affinity Biochemical interaction: (enzymatic assay (fluorogenic substrate cleavage)) EUB0002190aAD CASP9; assay type: functional; parameters: mode of action Inhibitor, recommended concentration 1 uM
[16] = Affinity Biochemical interaction: (enzymatic assay (fluorogenic substrate cleavage)) EUB0002134a CAPN2

- IC50 (Caspase-5): 340 nM
Compound: COC(=O)CC[C@H](NC(=O)[C@H](Cc1c[nH]c2ccccc12)NC(=O)OCc1ccccc1)C(=O)N[C@@H](Cc1cnc[nH]1)C(=O)N[C@@H](CC(=O)OC)C(=O)CF (Cbz-WE(OMe)HD(OMe)-CH2F)

- IC50 (Caspase-3 [1]): 13.6 nM
- IC50 (Caspase-3 [2]): 480 nM
Compound: CC[C@H](C)[C@H](NC(=O)[C@H](CCC(=O)O)NC(=O)[C@@H](NC(C)=O)C(C)C)C(=O)N[C@H](C=O)CC(=O)O (Ac-VEID-aldehyde)

- IC50 (Caspase-8 [3]): 5 nM
Compound: CC[C@H](C)[C@H](NC(C)=O)C(=O)N[C@@H](CCC(=O)O)C(=O)N[C@H](C(=O)N[C@H](C=O)CC(=O)O)[C@@H](C)O (Ac-IETD-aldehyde)

- IC50 [4]: 103 nM
- Ki [5]: 45 nM
Compound: CCN(c1cc(C#CCN2CCOCC2)cc(C(=O)NCc2c(C)cc(C)[nH]c2=O)c1C)[C@H]1CC[C@H](N(C)CCOC)CC1

- IC50 (Caspase-4): 84 nM
Compound: CC(=O)N[C@@H](CC(C)C)C(=O)N[C@@H](CCC(=O)O)C(=O)N[C@H](C(=O)N[C@H](C=O)CC(=O)O)C(C)C (Ac-LEVD-aldehyde)

- IC50 [6]: 130 nM
- Ki [6]: 14 nM
Compound: CN(C)CCCN(CC[C@H](N)C(=O)O)C[C@H]1O[C@@H](n2cnc3c(N)ncnc32)[C@H](O)[C@@H]1O

- Ki (Caspase-2): 3.5 nM
- Ki (Caspase-3 [7]): 1 nM
- Ki (Caspase-7): 7.5 nM
Compound: CC(=O)N[C@H](C(=O)N[C@@H](CC(=O)O)C(=O)N[C@H](C(=O)N[C@@H](C)C(=O)N[C@H](C=O)CC(=O)O)C(C)C)C(C)C (Ac-VDVAD-aldehyde)

- Ki [8]: < 0.001 nM
- Ki [9]: 0.106 nM
Compound: Cc1nc(F)ccc1-c1cc(Cn2ccn(C)c2=N)cc(C(=O)NCc2ccc(Cl)c(Cl)c2)c1

- IC50 [10]: 11 nM
- Ki [10]: 5.02 nM
Compound: O=C(Nc1ccccc1C(=O)O)c1cc(S(=O)(=O)c2ccccc2)ccc1Cl

- IC50 [11]: 38 nM
- Ki [11]: 19 nM
- IC50 [12]: 4.7 nM
- Ki [12]: 2.4 nM
- IC50 [13]: 3.9 nM
- Ki [13]: 2 nM
Compound: CCOCC1(COCC)CCC(c2n[nH]cc2CN(C)CCNC)CC1

- Ki (Caspase-1): < 12 nM
- Ki (Caspase-3 [14]): 42 nM
- Ki (Caspase-6): 52 nM
- Ki (Caspase-8 [15]): 1.6 nM
- Ki (Caspase-9): 48 nM
Compound: CC(C)[C@H](NC(=O)[C@H](CCC(=O)O)NC(=O)[C@H](C)NC(=O)OC(C)(C)C)C(=O)N[C@H](C=O)CC(=O)O (Boc-AEVD-aldehyde)

- Ki [16]: 120 nM
Compound: CCCC(NC(=O)C(CC(C)C)NC(=O)OCc1ccccc1)C(=O)C(=O)NCc1ccccn1 (racemic)
